Tested on: Asthma patients
Assay: Retrospective observational cohort study (UK General Practice Research Database): odds of successful asthma control after ICS increase
Assay type: in vivo
Conditions: compared with Qvar; as the primary proxy plus average daily prescribed salbutamol no more than 200 mcg and terbutaline 500 mcg; 12 month follow-up
Text: Qvar® and other inhaled corticosteroids (ICS) CFC-beclometasone (BDP) and fluticasone propionate (FP) were compared in a large representative, UK clinical database.
Patients were eligible if they had data available for the twelve months prior to AND twelve months after the date of ICS increase. Multiple logistic regression, adjusted for baseline severity, provided odds of successful asthma control (no asthma hospital attendances, oral steroids, consultations or hospital admissions for lower respiratory tract infections requiring antibiotics) during 12 month follow-up. Poisson regression was used to compare asthma exacerbation rates (unscheduled hospital admissions/A&E attendances for asthma or use of oral steroids).
Study Design: A retrospective, observational, cohort study design was used, consisting of two time periods: a baseline period for confounder definition (minimum of one year before index prescription date) and an outcome period of one year post-index prescription date. The study design is shown in schematic format in FIG. 1.
Statistical Analysis: Descriptive statistics were used to compare baseline outcomes. Multiple logistic regression, adjusted for baseline severity and other potential confounders found at baseline, was used to determine the odds of successful asthma control. Poisson regression was used to compare exacerbation rates. […]

CCC(=O)O[C@]1(C(=O)SCF)[C@H](C)C[C@H]2[C@@H]3C[C@H](F)C4=CC(=O)C=C[C@]4(C)[C@@]3(F)[C@@H](O)C[C@@]21C [FP, fluticasone propionate]
Adjusted odds ratio for successful asthma control, revised definition including SABA use: 0.90

Source: US20110212137A1, “INHALABLE PHARMACEUTICAL COMPOSITION” (TEVA BRANDED PHARMACEUTICAL PRODUCTS R&D, INC., priority 2010, published 2011)
